Active and inactive are the calls of the source.
How the values were obtained:
[1] = enhancers of respiration in Yfh1-depleted yeast, dose response, Friedreich's ataxia, plus single-dose screen (AID 1465); format: functional;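 also: yeast depleted of Yfh1p frataxin homolog grown on glycerol needing respiration; WST-1 tetrazolium dye reduction as measure of cellular dehydrogenase metabolic activity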
Leucine aminopeptidase = target: T1, Leucine aminopeptidase (Plasmodium falciparum 3D7, UniProt Q8IL11); assay: P. falciparum M17LAP inhibitors, primary screen, biochemical, fluorogenic H-Leu-NHMec substrate, 1536-well (AID 1619); format: functional
T1 sequence (Q8IL11 whole entry): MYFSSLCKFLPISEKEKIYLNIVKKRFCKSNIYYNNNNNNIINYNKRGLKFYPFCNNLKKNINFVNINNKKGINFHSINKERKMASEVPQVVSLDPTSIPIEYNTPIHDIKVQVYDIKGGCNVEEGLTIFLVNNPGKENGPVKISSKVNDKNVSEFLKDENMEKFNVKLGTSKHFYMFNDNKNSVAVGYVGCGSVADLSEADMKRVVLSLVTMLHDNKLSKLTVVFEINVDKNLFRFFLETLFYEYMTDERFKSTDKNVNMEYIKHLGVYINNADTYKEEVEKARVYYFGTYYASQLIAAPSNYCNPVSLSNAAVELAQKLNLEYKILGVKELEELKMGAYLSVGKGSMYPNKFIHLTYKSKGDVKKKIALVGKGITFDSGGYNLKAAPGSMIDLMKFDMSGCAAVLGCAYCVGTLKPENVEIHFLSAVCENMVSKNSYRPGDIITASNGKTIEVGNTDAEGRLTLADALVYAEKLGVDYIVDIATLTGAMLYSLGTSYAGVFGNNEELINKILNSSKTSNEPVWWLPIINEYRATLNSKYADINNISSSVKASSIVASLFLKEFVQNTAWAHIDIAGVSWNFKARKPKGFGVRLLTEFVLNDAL

[2] = target: Neuropeptide Y receptor type 1 (Homo sapiens, UniProt P25929); format: functional;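 also: HEK293 cells with a CNG channel challenged with NPY then isoproterenol; potency as antagonist that reverses NPY suppression of cAMP signal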
Sequence of Neuropeptide Y receptor type 1 (P25929 whole entry): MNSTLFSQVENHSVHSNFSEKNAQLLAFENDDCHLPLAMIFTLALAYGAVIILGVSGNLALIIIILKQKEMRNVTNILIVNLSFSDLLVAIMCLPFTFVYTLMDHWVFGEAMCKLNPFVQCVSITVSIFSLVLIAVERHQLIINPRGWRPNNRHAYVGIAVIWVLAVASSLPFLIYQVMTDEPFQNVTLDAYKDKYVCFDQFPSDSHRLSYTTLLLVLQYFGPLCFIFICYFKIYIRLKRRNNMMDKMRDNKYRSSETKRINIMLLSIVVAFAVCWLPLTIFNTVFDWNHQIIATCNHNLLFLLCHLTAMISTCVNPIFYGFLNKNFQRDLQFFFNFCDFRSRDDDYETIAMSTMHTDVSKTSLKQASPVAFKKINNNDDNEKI

[3] = target: Neuropeptide Y receptor type 2 (Homo sapiens, UniProt P49146); format: functional, cell-based;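 also: HEK293 cells expressing the receptor and a CNG channel; stimulus was NPY near EC95 followed by isoproterenol to raise cAMP; antagonist potency measured as restoring cAMP signal that NPY suppresses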
Sequence of Neuropeptide Y receptor type 2 (P49146 whole entry): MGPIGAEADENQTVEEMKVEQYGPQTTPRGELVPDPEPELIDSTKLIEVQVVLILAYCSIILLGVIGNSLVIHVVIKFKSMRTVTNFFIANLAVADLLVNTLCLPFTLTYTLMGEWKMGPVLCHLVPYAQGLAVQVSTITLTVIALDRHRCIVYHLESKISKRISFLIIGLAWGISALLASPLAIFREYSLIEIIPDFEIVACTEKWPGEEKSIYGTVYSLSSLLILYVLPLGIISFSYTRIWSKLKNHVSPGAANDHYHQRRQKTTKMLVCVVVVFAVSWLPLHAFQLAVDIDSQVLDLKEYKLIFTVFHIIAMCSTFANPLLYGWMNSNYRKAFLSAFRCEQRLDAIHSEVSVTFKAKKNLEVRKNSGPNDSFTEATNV

Streptokinase A = target: T2, Streptokinase A (Streptococcus pyogenes serotype M1, UniProt P10520); assay: Absorbance Microorganism-Based Dose Response Follow up to Identify Inhibitors of Streptokinase Expression. [Related pubchem assays: 1677 (Project Summary), 1915, 1914, 1902 (Retest at Dose), 1900 (Counter Screen), 1662 (Primary HTS)]; format: functional, Streptococcus pyogenes M1 GAS
T2 sequence (P10520 whole entry): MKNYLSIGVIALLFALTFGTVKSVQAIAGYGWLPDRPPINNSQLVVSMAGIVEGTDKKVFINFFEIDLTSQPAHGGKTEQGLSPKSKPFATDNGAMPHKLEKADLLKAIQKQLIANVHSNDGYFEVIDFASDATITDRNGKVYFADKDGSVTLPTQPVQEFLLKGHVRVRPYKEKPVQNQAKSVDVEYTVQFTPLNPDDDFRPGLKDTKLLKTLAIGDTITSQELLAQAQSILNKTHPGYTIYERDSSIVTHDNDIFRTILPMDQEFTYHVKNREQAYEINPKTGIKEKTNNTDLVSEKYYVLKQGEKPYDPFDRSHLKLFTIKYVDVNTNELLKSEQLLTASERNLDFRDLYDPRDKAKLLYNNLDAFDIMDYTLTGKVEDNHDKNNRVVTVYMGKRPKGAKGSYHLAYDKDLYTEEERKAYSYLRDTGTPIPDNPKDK

[4] = nonselective inhibitors of cellular cAMP signaling, dose response, counter-screen for MC4R biased antagonist project, cell-based, TR-FRET cAMP detection (AID 602305); format: functional;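 also: U2OS cells stimulated with forskolin near its EC80 as the cAMP inducer; potency is for inhibition of forskolin-stimulated cAMP signaling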
Melanocortin receptor 4 = Melanocortin receptor 4 (Homo sapiens, UniProt P32245); assay: MC4R antagonist potency on cAMP, dose response, cell-based, TR-FRET, biased antagonists (AID 602298); format: functional;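 also: antagonist potency against agonist-stimulated cAMP production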
Sequence of Melanocortin receptor 4 (P32245 whole entry): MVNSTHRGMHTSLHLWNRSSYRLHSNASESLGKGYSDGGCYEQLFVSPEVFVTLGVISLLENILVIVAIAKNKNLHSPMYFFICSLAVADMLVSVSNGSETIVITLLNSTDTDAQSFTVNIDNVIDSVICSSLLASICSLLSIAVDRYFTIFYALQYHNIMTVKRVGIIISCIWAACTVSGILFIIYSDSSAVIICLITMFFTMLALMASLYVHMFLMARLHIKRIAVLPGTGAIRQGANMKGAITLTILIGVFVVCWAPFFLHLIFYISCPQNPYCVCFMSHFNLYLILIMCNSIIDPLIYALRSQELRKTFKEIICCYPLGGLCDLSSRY

Streptococcus = assay: Streptococcus pyogenes growth inhibition counter-screen, dose response, counter-screen for streptokinase expression inhibitor project, luminescence, BacTiter-Glo, strain UMAA2166 (AID 2477); format: functional, organism-based
Estrogen receptor = target: T3, Estrogen receptor (Homo sapiens, UniProt P03372); assay: ERα–SRC-3 coactivator interaction inhibitors, confirmation, orthogonal assay, biochemical, ELISA, streptavidin-HRP readout (AID 1079)
T3 sequence (P03372 whole entry): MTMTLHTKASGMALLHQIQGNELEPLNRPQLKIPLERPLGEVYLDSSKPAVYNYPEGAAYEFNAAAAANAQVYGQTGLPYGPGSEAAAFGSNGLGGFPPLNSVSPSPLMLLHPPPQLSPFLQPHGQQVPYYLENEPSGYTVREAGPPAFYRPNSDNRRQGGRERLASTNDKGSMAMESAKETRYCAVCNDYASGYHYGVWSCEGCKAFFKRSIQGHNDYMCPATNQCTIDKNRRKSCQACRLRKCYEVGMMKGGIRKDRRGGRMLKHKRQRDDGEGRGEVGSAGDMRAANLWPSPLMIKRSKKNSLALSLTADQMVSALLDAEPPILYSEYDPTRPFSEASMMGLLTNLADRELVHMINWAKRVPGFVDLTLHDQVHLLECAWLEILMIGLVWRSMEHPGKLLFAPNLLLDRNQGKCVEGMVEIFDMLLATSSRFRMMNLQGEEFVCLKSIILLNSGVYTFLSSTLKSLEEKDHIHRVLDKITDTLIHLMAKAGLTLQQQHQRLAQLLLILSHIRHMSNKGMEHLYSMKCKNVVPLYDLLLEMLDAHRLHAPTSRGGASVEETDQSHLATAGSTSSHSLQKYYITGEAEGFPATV

[5] = Luminescence-based counterscreen assay for KLF5 inhibitors: dose response cell-based high throughput screening assay to identify cytotoxic compounds using the IEC-6 intestinal epithelial cell line. [Related pubchem assays: 1700 (Primary screen.), 1834 (Confirmation screen.), 1858 (Summary AID.), 1905 (Counterscreen.)]; format: functional
[6] = inhibitors of clade B AD8 Env fusion, dose response, cell-based, cherry-pick (AID 652062); format: functional;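 also: luciferase signal from cell-cell fusion driven by HIV-1 clade B AD8 Env; potency is for inhibitors of fusion seen as a drop in luminescence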
[7] = Luminescence Cell-Based Dose Retest to Confirm Inhibitors of Cancer Stem Cells. [Related pubchem assays (depositor defined):AID2717, AID2721]; format: functional; settings: Homo sapiens
INS1 = assay: beta cell apoptosis inhibitors, cytokine rescue, dose response, luminescence, retest (AID 449756); format: functional, cell-based; settings: Rattus norvegicus;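 also: cell death triggered by IL-1 beta plus TNF-alpha plus IFN-gamma mixture; protective hits raise ATP signal compared with cytokine alone wells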
Exodeoxyribonuclease V = Exodeoxyribonuclease V (Escherichia coli (strain K12), UniProt P04993+P07648+P08394); assay: E. coli RecBCD inhibitors, dose response, counter-screen for AddAB inhibitor project, absorbance, V66 E. coli, mutant T4 phage (AID 492957); format: functional, cell-based, Escherichia coli str. K-12 substr. MG1655
Sequence of Exodeoxyribonuclease V (P04993 whole entry): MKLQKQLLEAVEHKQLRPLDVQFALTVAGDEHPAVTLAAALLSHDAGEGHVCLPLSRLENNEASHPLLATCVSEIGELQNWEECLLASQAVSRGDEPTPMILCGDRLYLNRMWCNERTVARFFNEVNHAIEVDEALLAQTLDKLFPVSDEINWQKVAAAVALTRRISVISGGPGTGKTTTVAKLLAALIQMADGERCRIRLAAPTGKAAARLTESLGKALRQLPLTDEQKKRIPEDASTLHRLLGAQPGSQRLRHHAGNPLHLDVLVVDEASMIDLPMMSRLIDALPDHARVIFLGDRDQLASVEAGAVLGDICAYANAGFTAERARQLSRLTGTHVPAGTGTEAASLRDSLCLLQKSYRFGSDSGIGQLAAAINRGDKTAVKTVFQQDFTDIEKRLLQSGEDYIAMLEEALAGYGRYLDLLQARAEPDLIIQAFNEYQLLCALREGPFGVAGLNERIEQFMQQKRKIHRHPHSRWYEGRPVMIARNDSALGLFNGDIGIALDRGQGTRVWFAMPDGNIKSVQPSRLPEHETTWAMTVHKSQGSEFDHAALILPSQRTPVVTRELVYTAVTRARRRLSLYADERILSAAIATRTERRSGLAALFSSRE
Sequence of Exodeoxyribonuclease V (P07648 whole entry): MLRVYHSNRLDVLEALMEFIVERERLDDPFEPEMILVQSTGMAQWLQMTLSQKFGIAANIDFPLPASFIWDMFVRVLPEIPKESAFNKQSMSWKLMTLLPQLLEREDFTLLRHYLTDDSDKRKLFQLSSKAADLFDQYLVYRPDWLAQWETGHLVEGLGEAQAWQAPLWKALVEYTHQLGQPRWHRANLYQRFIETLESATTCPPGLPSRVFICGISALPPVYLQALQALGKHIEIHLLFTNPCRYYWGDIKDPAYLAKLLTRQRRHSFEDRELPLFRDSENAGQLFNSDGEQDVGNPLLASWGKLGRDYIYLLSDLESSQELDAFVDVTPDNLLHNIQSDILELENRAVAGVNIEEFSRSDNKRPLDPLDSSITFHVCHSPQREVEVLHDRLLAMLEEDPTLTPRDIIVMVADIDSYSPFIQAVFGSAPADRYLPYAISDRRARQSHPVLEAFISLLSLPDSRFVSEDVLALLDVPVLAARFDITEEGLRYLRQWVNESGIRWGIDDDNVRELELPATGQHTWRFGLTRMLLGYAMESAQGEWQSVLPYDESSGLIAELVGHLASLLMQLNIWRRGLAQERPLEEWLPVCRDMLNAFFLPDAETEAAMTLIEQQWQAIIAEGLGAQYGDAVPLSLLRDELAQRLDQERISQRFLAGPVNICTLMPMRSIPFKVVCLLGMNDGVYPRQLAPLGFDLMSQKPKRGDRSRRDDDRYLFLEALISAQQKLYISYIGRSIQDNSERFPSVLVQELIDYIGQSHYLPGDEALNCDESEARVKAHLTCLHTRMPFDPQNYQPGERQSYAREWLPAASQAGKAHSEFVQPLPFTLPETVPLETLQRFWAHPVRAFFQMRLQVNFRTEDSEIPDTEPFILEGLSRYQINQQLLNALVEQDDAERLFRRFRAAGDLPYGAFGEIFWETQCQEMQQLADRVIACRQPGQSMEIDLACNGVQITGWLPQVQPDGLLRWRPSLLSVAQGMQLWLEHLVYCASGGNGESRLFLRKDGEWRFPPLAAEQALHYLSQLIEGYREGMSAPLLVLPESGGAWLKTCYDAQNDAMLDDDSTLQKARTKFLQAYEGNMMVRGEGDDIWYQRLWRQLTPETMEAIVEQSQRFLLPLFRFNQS
Sequence of Exodeoxyribonuclease V (P08394 whole entry): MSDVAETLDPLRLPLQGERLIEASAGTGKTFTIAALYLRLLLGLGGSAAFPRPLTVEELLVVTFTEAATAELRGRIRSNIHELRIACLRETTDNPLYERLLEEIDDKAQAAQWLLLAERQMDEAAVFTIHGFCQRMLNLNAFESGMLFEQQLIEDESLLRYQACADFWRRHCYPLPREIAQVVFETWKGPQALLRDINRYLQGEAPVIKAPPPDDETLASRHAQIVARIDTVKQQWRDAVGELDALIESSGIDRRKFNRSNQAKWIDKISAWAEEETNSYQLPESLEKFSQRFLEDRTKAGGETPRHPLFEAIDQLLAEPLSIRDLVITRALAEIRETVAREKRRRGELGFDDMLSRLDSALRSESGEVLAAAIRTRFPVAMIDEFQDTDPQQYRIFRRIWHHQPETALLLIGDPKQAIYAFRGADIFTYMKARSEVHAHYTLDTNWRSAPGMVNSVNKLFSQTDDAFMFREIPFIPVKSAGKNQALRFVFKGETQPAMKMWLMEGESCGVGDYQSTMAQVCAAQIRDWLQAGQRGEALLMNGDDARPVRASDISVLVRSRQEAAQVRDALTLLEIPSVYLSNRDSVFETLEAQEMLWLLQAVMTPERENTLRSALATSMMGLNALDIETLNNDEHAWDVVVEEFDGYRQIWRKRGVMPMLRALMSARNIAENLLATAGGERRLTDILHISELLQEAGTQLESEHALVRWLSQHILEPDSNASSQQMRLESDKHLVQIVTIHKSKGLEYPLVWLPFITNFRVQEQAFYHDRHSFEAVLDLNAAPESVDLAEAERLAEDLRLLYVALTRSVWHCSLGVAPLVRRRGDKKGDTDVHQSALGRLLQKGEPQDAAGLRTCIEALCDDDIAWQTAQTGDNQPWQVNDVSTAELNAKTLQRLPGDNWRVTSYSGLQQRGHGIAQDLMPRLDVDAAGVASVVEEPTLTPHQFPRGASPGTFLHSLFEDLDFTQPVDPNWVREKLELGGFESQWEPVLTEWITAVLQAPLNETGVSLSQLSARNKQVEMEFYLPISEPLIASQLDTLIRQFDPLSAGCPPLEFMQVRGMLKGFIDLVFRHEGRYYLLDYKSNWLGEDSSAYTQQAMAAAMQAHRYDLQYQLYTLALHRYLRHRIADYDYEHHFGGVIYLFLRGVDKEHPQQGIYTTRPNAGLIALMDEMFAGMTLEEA

[8] = target: Heat shock protein HSP 90-alpha (Homo sapiens, UniProt P07900); format: functional, organism-based
[9] = CEM21 lymphoblast cell cytotoxicity, dose response, cytotoxicity control for viral fusion inhibitor project, CellTiter-Glo luminescence, cherry-picked (AID 652042); format: functional, cell-based;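 also: potency for signal decrease meaning cytotoxicity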
[10] = inhibitors of HIV Env-driven cell fusion, dose response, cherry-pick (AID 652057); format: functional, cell-based
[11] = Counterscreen for AddAB inhibitors: absorbance-based bacterial cell-based high throughput dose response assay for inhibitors of bacterial viability. [Related pubchem assays (depositor defined):AID435030, AID449728, AID449731, AID488942, AID488955, AID488956]; format: functional
[12] = ZM109 Env clade C HIV-1 fusion inhibitors, dose response, HeLa effector, CEM target cells, luciferase, cherry-pick (AID 652058); format: functional, cell-based
[13] = off-target signal loss in HeLa-CEM21 co-culture – HeLa F-luc CTL cells, cherry-picked, counter-screen for HIV-1 Env fusion inhibitor project, dose response (AID 652040); format: functional, cell-based;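 also: potency for signal decrease marking cytotoxic or nonspecific inhibition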

In the case of `N#C/C(=C\c1ccc(N2CCOCC2)o1)C(=O)N1CCOCC1`, the EC50 [1] is reported as > 100 µM (active) and the IC50 (Leucine aminopeptidase) is reported as 99.7 µM (active).

For `Cc1cccc(NC(S)=NN=C(S)NCc2ccccc2)c1`, the IC50 [2] was > 35 µM (not active) and the IC50 [3] was > 35 µM (not active).

With `Cc1ccc(Sc2ccc(NC(=O)c3ccc(F)cc3)cc2C#N)cc1` the EC50 (Streptokinase A) was > 500 µM (not active), the IC50 [4] was > 64.6 µM (inactive) and the IC50 (Melanocortin receptor 4) was > 64.6 µM (inactive). The EC50 (Streptococcus) was > 500 µM (not active).

With `O=C(CCCCCn1c(=S)[nH]c2ccccc2c1=O)N1CCC(N(Cc2ccccc2)c2ccccc2)CC1` the IC50 (Estrogen receptor) was 0.12 µM (not active).

In the case of `COc1cccc(/C=N/Nc2ncc(C(F)(F)F)cc2Cl)c1O`, the IC50 [5] is reported as 26.8 µM (not active), the AC50 [6] is reported as 7.04 µM (active) and the AC50 [7] is reported as 0.469 µM (active). For the same compound, the AC50 (INS1) was 0.584 µM (active), the IC50 (Exodeoxyribonuclease V) was > 119 µM (inactive) and the AC50 [8] was 5.59 µM (active). For the same compound, the AC50 [9] was 2.15 µM (active), the AC50 [10] was 1.37 µM (active) and the IC50 [11] was 98.2 µM (inactive). The AC50 [12] was 1.45 µM (active) and the AC50 [13] was 17.4 µM (active).
